Results reported in US20240043403A1, “HETEROARYL CARBOXAMIDE COMPOUND” (Astellas Pharma Inc., priority 2020, published 2024).

Target: human recombinant DGK ξ (Homo sapiens (Human), UniProt Q13574)
Experiment: Evaluation of DGK ξ inhibitory effect (ADP-Glo Kinase Assay)
Assay type: biochemical
Settings: ADP-Glo luminescence
Procedure: Test Example 1. Evaluation of DGK ξ Inhibitory Effect
The inhibitory effect of a test compound on human recombinant DGK ξ (Cama Biosciences, Inc., 12-410-20N) was examined by the following method in which detection is performed with ADP-Glo™ Kinase Assay (Promega Corporation).
To a 384-well plate (Greiner Bio-One Co., Ltd.), 3 μL of a DGK ξ enzyme dissolved in an assay buffer (40 mM Tris-HCl pH 7.5, 10 mM MgCl2, 1 mM dithiothreitol (DTT) and 0.1 mg/mL bovine serum albumin (BSA)) (90 ng/mL) was added, and 3 μL of the test compound diluted with the same assay buffer was added so that an intended final concentration was obtained. The mixture was left standing at room temperature for 15 minutes, 3 μL of a substrate (150 μM 1-oleoyl-2-acetyl-sn-glycerol (Sigma-Aldrich Co. LLC), 480 μM phosphatidylserine (Avanti, Inc.) and 150 μM UltraPure-ATP (attached to ADP-Glo)) was then added, and the mixture was left standing at room temperature for 30 minutes to react. Thereafter, 3 μL of an ADP-Glo Reagent was added, and the mixture was left standing at room temperature for 40 minutes to stop the enzyme reaction. Further, 6 μL of a Kinase-Detection Reagent was added, the mixture was left standing at room temperature for 30 minutes, and the luminescence was then measured using ARVO X3 (PerkinElmer, Inc.). The half maximal inhibitory concentration (IC50) was calculated by Sigmoid-Emax model non-linear regression analysis, where the signal value in solvent treatment was set to 0% inhibition and the signal value without addition of the DGK ξ enzyme was set to 100% inhibition. […] In the table. Ex represents the number of each Example described below.

Sequence of human recombinant DGK ξ (Q13574 whole entry): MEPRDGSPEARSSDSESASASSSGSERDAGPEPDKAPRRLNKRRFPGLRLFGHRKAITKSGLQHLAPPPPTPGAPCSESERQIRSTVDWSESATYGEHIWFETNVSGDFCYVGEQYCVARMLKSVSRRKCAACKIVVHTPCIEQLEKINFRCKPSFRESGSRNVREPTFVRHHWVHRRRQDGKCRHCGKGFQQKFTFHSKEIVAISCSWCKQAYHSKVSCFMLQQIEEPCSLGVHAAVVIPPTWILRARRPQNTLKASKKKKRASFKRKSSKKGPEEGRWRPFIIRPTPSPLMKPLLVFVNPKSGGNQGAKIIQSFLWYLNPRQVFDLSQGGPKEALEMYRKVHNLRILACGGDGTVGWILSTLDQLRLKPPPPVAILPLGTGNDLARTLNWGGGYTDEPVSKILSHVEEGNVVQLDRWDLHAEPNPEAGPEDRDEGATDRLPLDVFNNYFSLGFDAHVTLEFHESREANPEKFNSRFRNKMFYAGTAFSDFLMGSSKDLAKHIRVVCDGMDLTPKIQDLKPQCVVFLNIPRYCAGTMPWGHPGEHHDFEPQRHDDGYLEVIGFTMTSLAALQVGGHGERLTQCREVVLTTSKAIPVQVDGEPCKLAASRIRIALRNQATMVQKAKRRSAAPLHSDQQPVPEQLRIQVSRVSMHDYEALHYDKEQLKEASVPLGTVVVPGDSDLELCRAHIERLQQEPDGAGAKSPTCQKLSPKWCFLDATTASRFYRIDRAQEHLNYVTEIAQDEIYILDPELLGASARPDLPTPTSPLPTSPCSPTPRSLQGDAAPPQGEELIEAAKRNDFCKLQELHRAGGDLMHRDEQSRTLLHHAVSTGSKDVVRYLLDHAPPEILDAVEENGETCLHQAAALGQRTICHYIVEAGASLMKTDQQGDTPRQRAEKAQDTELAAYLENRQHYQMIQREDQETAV

Row | Structure (SMILES) | IC50 [nM]
1 | CN1CCN(c2c(NC(=O)c3ccn(CC(F)F)n3)ccc(Oc3ccccc3F)c2Cl)C[C@@H]1CN [Example 112, N-{2-[(3S)-3-(aminomethyl)-4-methylpiperazin-1-yl]-3-chloro-4-(2-fluorophenoxy)phenyl}-1-(2,2-difluoroethyl)-1H-pyrazole-3-carboxamide] | 52
2 | CNC[C@H]1CN(c2c(NC(=O)c3ccn(-c4ccnnc4)n3)cc(F)c(Oc3ccccc3)c2F)CCN1C [Example 108] | 8.9
3 | CN1CCN(c2c(NC(=O)c3cccn(CC(F)F)c3=O)ccc(Oc3ccccc3F)c2C(F)(F)F)C[C@@H]1CN [Example 16] | 73
4 | CN1CCN(c2c(NC(=O)c3ccn(CC(F)F)n3)ccc(Oc3ccccc3F)c2C(F)(F)F)C[C@H]1CN [Example 19] | 960
5 | CNC[C@H]1CN(c2c(NC(=O)c3ccn(CC(F)F)n3)ccc(C3CCCC3)c2C(F)(F)F)CCN1C [Example 14] | 150
6 | CN1CCN(c2c(NC(=O)c3cccn(CC(F)F)c3=O)ccc(Oc3ccccc3F)c2C(F)(F)F)C[C@H]1CN [Example 21] | 1100
7 | N[C@@H]1CCN2CCN(c3c(NC(=O)c4coc(-c5ccnnc5)n4)ccc(OC4CC4)c3C(F)(F)F)C[C@@H]12 [Example 81] | 110
8 | CN(C)[C@@H]1CCN2CCN(c3c(NC(=O)c4coc(-c5ccnnc5)n4)ccc(Oc4ccccc4F)c3C(F)(F)F)C[C@@H]12 [Example 120] | 4.3
9 | NC[C@@H]1CCCN(c2c(NC(=O)c3ccn(-c4ccnnc4)n3)ccc(Oc3ccccc3F)c2C(F)(F)F)C1 [Example 34] | 3.1
10 | CNC[C@H]1CN(c2c(NC(=O)c3ccn(-c4ccnnc4)n3)ccc(Oc3ccccc3F)c2C2CC2)CCN1C [Example 104] | 37
11 | N[C@@H]1CCN2CCN(c3c(NC(=O)c4ccn(-c5ccnnc5)n4)ccc(OC4CC4)c3C(F)(F)F)C[C@@H]12 [Example 82] | 31
12 | Cc1cc(C(=O)Nc2ccc(Oc3ccccc3)c(C(F)(F)F)c2N2CCC[C@@H](CN)C2)nn1-c1ccnnc1 [Example 35] | 45
13 | CNC[C@H]1CN(c2c(NC(=O)c3ccn(-c4ccnnc4)n3)ccc(Oc3ccc(F)cc3F)c2C(F)(F)F)CCN1C [Example 96] | 30
14 | CNC[C@H]1CN(c2c(NC(=O)c3ccn(CC(F)F)n3)ccc(Oc3ccccc3F)c2Cl)CCN1C [Example 27] | 37
15 | CN1CCN(c2c(NC(=O)c3cccn(CC(F)F)c3=O)ccc(Oc3ccccc3Cl)c2C(F)(F)F)C[C@@H]1CN [Example 15] | 99
16 | NC[C@@H]1CCCN(c2c(NC(=O)c3ccn(CC(F)F)n3)ccc(Oc3ccc(F)cc3)c2C(F)(F)F)C1 [Example 8] | 88
17 | CNC[C@H]1CN(c2c(NC(=O)c3coc(-c4ccnnc4)n3)ccc(Oc3ccccc3F)c2Cl)CCN1C [Example 98] | 7.5
18 | CN(C)C[C@H]1CN(c2c(NC(=O)c3coc(-c4ccnnc4)n3)ccc(Oc3ccccc3)c2C(F)(F)F)CCN1C [Example 116] | 44
19 | CNC[C@H]1CN(c2c(NC(=O)c3ccn(CC(F)F)n3)ccc(Oc3ccccc3Cl)c2Cl)CCN1C [Example 26] | 19

Row | Structure (SMILES) | IC50 [nM]
20 | CN1CCN(c2c(NC(=O)c3coc(-c4ccnnc4)n3)ccc(OC3CCCC3)c2C(F)(F)F)C[C@@H]1CN [Example 41] | 5
21 | NC[C@@H]1CCCN(c2c(NC(=O)c3ccn(CC(F)F)n3)ccc(Oc3ccccc3F)c2F)C1 [Example 6] | 57
22 | CN(C)[C@@H]1CCN2CCN(c3c(NC(=O)c4coc(-c5ccnnc5)n4)ccc(Oc4ccccc4)c3C(F)(F)F)C[C@@H]12 [Example 115] | 7.9
23 | CN1CCN(c2c(NC(=O)c3ccn(CC(F)F)n3)ccc(OC3CCC3)c2C(F)(F)F)C[C@@H]1CN [Example 17] | 190
24 | CN[C@@H]1CCN2CCN(c3c(NC(=O)c4coc(-c5ccnnc5)n4)ccc(Oc4ccccc4)c3C(F)(F)F)C[C@@H]12 [Example 76] | 7.6
25 | CNCCOc1cc(-c2c(NC(=O)c3coc(-c4ccnnc4)n3)ccc(OC3CC3)c2C(F)(F)F)ccn1 [Example 70] | 55
26 | CN(C)CCOc1cccc(-c2c(NC(=O)c3coc(-c4ccnnc4)n3)ccc(OC3CC3)c2C(F)(F)F)c1 [Example 114] | 37
27 | CNC[C@H]1CN(c2c(NC(=O)c3ccn(-c4ccnnc4)n3)ccc(Oc3ccccc3Cl)c2Cl)CCN1C [Example 94] | 1.4
28 | O=C(Nc1ccc(Oc2ccccc2F)c(C(F)(F)F)c1N1CCC[C@@H](CNC2CC2)C1)c1ccn(-c2ccnnc2)n1 [Example 36] | 55
29 | CNC[C@H]1CN(c2c(NC(=O)c3coc(-c4ccnnc4)n3)ccc(OC3CCC3)c2C(F)(F)F)CCN1C [Example 100] | 60
30 | NC[C@@H]1CCCN(c2c(NC(=O)c3coc(-c4ccnnc4)n3)ccc(-c3ccccc3F)c2C(F)(F)F)C1 [Example 42] | 150
31 | CNC[C@H]1CN(c2c(NC(=O)c3coc(-c4ccnnc4)n3)ccc(Oc3ccccc3F)c2C2CC2)CCN1C [Example 103] | 46
32 | CNC[C@H]1CN(c2c(NC(=O)c3ccn(CC(F)F)n3)ccc(Oc3ccccc3F)c2C(F)(F)F)CCN1C [Example 23] | 63
33 | NC[C@@H]1CCCN(c2c(NC(=O)c3ccn(CC(F)F)n3)ccc(OC3CC3)c2C(F)(F)F)C1 [Example 5] | 330
34 | NC[C@]1(F)CCCN(c2c(NC(=O)c3ccn(-c4ccnnc4)n3)ccc(Oc3ccccc3F)c2C(F)(F)F)C1 [Example 126, N-{2-[(3R)-3-(aminomethyl)-3-fluoropiperidin-1-yl]-4-(2-fluorophenoxy)-3-(trifluoromethyl)phenyl}-1-(pyridazin-4-yl)-1H-pyrazole-3-carboxamide monobutanedioate] | 6.2
35 | NC[C@@H]1CCCN(c2c(NC(=O)c3ccn(CC(F)F)n3)ccc(Oc3ccccc3Cl)c2C(F)(F)F)C1 [Example 9] | 9.3
36 | NCC1(F)CCCN(c2c(NC(=O)c3ccn(-c4ccnnc4)n3)ccc(Oc3ccccc3F)c2C(F)(F)F)C1 (stereo not drawn) [Example 58] | 21
37 | COCCNC[C@@H]1CCCN(c2c(NC(=O)c3ccn(-c4ccnnc4)n3)ccc(Oc3ccccc3F)c2C(F)(F)F)C1 [Example 64] | 13
38 | CNC[C@H]1CN(c2c(NC(=O)c3coc(-c4ccnnc4)n3)ccc(Oc3ccccc3Cl)c2Cl)CCN1C [Example 93] | 2.8

Row | Structure (SMILES) | IC50 [nM]
39 | NCCOc1cccc(-c2c(NC(=O)c3coc(-c4ccnnc4)n3)ccc(OC3CC3)c2C(F)(F)F)c1 [Example 65] | 22
40 | N[C@@H]1CCN2CCN(c3c(NC(=O)c4ccn(-c5ccnnc5)n4)ccc(Oc4ccccc4F)c3C(F)(F)F)C[C@@H]12 [Example 77] | 5.6
41 | CNC[C@H]1CN(c2c(NC(=O)c3ccn(-c4ccnnc4)n3)ccc(-c3ccccc3F)c2C(F)(F)F)CCN1C [Example 59] | 11
42 | NC[C@@H]1CCCN(c2c(NC(=O)c3ccn(CC(F)F)n3)ccc(OC3CCCC3)c2C(F)(F)F)C1 [Example 4] | 170
43 | Cc1cn(-c2ccnnc2)nc1C(=O)Nc1ccc(Oc2ccccc2F)c(C(F)(F)F)c1N1CCC[C@@H](CN)C1 [Example 39] | 39
44 | CN1CCN(c2c(NC(=O)c3ccn(CC(F)F)n3)ccc(Oc3ccc(F)cc3F)c2C(F)(F)F)C[C@@H]1CN [Example 18] | 130
45 | CNC[C@H]1CN(c2c(NC(=O)c3ccn(-c4ccnnc4)n3)ccc(OC3CCC3)c2C(F)(F)F)CCN1C [Example 99] | 33
46 | NC[C@@H]1CCCN(c2c(NC(=O)c3ccn(-c4ccnnc4)n3)ccc(-c3ccccc3F)c2C(F)(F)F)C1 [Example 43] | 30
47 | NCCOc1cc(-c2c(NC(=O)c3coc(-c4ccnnc4)n3)ccc(OC3CC3)c2C(F)(F)F)ccn1 [Example 68] | 24
48 | CN[C@@H]1CCN2CCN(c3c(NC(=O)c4ccn(-c5ccnnc5)n4)ccc(Oc4ccccc4F)c3C(F)(F)F)C[C@@H]12 [Example 78] | 1.3
49 | CN1CCN(c2c(NC(=O)c3ccn(-c4ccnnc4)n3)ccc(Oc3ccccc3Cl)c2C(F)(F)F)C[C@@H]1CN [Example 46] | 3.1
50 | CNC[C@H]1CN(c2c(NC(=O)c3ccn(-c4ccnnc4)n3)ccc(C3CCCC3)c2C(F)(F)F)CCN1C [Example 124] | 3.8
51 | CN(C)[C@@H]1CCN2CCN(c3c(NC(=O)c4coc(-c5ccnnc5)n4)ccc(OC4CC4)c3C(F)(F)F)C[C@@H]12 [Example 119] | 41
52 | CN1CCN(c2c(NC(=O)c3coc(-c4ccnnc4)n3)ccc(Oc3ccc(F)cc3)c2C(F)(F)F)C[C@@H]1CN [Example 53] | 29
53 | CN1CCN(c2c(NC(=O)c3coc(-c4ccnnc4)n3)ccc(Oc3ccccc3Cl)c2Cl)C[C@@H]1CN [Example 57] | 0.42
54 | CN1CCN(c2c(NC(=O)c3ccn(-c4ccnnc4)n3)ccc(OC3CCCC3)c2C(F)(F)F)C[C@@H]1CN [Example 40] | 5.2
55 | NC[C@@H]1CCCN(c2c(NC(=O)c3ccn(-c4ccnnc4)n3)ccc(Oc3ccccc3Cl)c2C(F)(F)F)C1 [Example 33] | 4.8
56 | CNC[C@H]1CN(c2c(NC(=O)c3ccn(CC(F)F)n3)ccc(Oc3ccccc3Cl)c2C(F)(F)F)CCN1C [Example 24] | 36
57 | CNC[C@@H]1CN(c2c(NC(=O)c3ccn(-c4ccnnc4)n3)ccc(Oc3ccccc3Cl)c2C(F)(F)F)CCN1C [Example 95] | 3.8
